The subject of test [1] is BMJ1 cells. The test is described as follows: Inhibitory activity on proliferation of transformed BMJ1 cells (SRB method). It is filed as cell-based, mouse. The settings on record: for IC50: Mus musculus, transformed BMJ1 cells; for 50% cell proliferation inhibitory activity in the presence of L-654,969: presence of 0.8 μM of L-654,969. On the procedure: The BMJ1 cells which were obtained by introducing a hormone-inducible activated ras gene into BALB3T3 cells, a mouse-derived established cell line, were transformed by adding dexamethasone to the culture so as to produce an activated Ras protein. To assess the inhibitory effects of the PFT inhibitors on cell proliferation, the 50% proliferation inhibitory concentration for each compound was calculated by adding each compound to a transformed BMJ1 cell culture at various concentrations, and counting the number of cells after incubation. The cell numbers were counted in accordance with the SRB method disclosed in Proc. Am. Assoc. Cancer Res., vol.

The subject of test [2] is farnesylation of Ras protein in NIH3T3 cells. The test is described as follows: Inhibitory effect on farnesylation of Ras protein in NIH3T3 cells into which an activated ras gene was introduced (SDS-PAGE, anti-Ras antibody, densitometry). Particulars: for inhibitory activity on farnesylation of Ras proteins in the presence of L-654,969: in the presence of L-654,969 (0.15 μM or 5 μM). In kind it is cell-based. On the procedure:
Inhibitory effect on farnesylation of Ras protein in NIH3T3 cells into which an activated ras gene was introduced, was measured by using the compounds prepared in Preparation Examples 3 and 5 as PFT inhibitors and L-654,969 (an active metabolite of simvastatin) as a hydroxymethylglutaryl CoA reductase inhibitor.
The cells were cultured for 24 hours, peeled off the plates and dissolved in accordance with the method disclosed in J. Biol. Chem., vol. 268, 18415 (1993). The cell solutions were centrifuged at 12000 g for 5 minutes, and the supernatants were used as cell extracts. The cell extracts were subjected to SDS polyacrylamide gel electrophoresis to separate the farnesylated Ras protein and the unfarnesylated Ras protein. […] After the anti-primary antibody, a peroxidaze-conjugated antibody (a secondary antibody) was allowed to react, the Ras protein was detected by mean of a chemoluminescence amplification kit. The proportion of the unfarnesylated Ras protein was determined by using a densitometer and defined as the inhibitory activity.

Where [3] appears, read: In the absence of L-654,969, read-out: 50% Proliferation inhibitory concentration (IC50 μM) In the absence of L-654,969.
Setting [4] is: In the presence of 0.8 μM of L-654,969, read-out: 50% Proliferation inhibitory concentration (IC50 μM) In the presence of 0.8 μM of L-654,969.
[5] abbreviates: PFT inhibitor 1 μM, L-654,969 5 μM, 24 hours.
The mark [6] stands for this setting: PFT inhibitor 3 μM, L-654,969 0.15 μM, 24 hours.
Setting [7] is: PFT inhibitor 3 μM, L-654,969 5 μM, 24 hours.

From patent US6083985A, “Medicinal composition” (Banyu Pharmaceutical Co., Ltd., priority 1995, dated 2000) come the findings set out here.

Like-named read-outs stand apart in the source and are kept apart here.

For the compound `C[C@H]([C@H](C/C=C/c1nc2ccccc2o1)c1ccc2c(c1)OCO2)N(Cc1ccc2ccccc2c1)C(=O)CC(CC(=O)O)(C(=O)O)C(=O)O` (racemic) [Preparation Example 3, 3-[N-{(1RS,2RS,4E)-5-(2-benzoxazolyl)-1-methyl-2-(3,4-methylenedioxyphenyl)-4-pentenyl}-N-(2-naphthylmethyl)carbamoyl]-1,2,2-propanetricarboxylic acid], the IC50 is 130 µM in test [1] (setting [3]) and 11 µM in test [1] (setting [4]). For the same compound, the “50% cell proliferation inhibitory activity in the presence of L-654,969” value in test [1] was “increased synergecally and concentration-dependently”. In addition, in test [2] (Mus musculus, NIH3T3, PFT inhibitor 10 μM, L-654,969: None, 24 hours, read-out: Inhibitory rate (%) on farnesylation of the Ras proteins), the inhibition at 10 µM came out at 32%. Further, the “Inhibitory rate (%) on farnesylation of the Ras proteins” value was determined as 55% in test [2] (setting [5]); 27% in test [2] (setting [6]); 88% in test [2] (setting [7]); 67% in test [2] (PFT inhibitor 10 μM, L-654,969 0.15 μM, 24 hours); 90% in test [2] (PFT inhibitor 10 μM, L-654,969 5 μM, 24 hours). The “inhibitory activity on farnesylation of Ras proteins in the presence of L-654,969” value in test [2] was “increased synergically and concentration-dependently”.

As to `C[C@H]([C@H](C/C=C/c1nc2ccccc2o1)c1ccc2c(c1)OCO2)N(Cc1ccc2ccccc2c1)C(=O)[C@H](O)[C@@H](CC(=O)[O-])C(=O)[O-].[Na+].[Na+]` (racemic) [Preparation Example 4, disodium (3RS,4RS)-4-[N-{(1RS,2RS,4E)-5-(2-benzoxazolyl)-1-methyl-2-(3,4-methylenedioxyphenyl)-4-pentenyl}-N-(2-naphthylmethyl)carbamoyl]-3-carboxylato-4-hydroxybutanoate], the IC50 in test [1] (setting [3]) turned out to be 105 µM; in test [1] (setting [4]), 6.5 µM. Moreover, the “50% cell proliferation inhibitory activity in the presence of L-654,969” value in test [1] is “increased synergecally and concentration-dependently”.

Regarding `CCC(C)(C)C(=O)O[C@H]1C[C@@H](C)C=C2C=C[C@H](C)[C@H](CC[C@@H](O)C[C@@H](O)CC(=O)O)[C@H]21` [L-654,969, reference compound], the “inhibition of cell proliferation by L-654,969 alone” value in test [1] (0.8 μM, alone) is listed as “does not inhibit cell proliferation alone”. Also, the “inhibition of farnesylation of the Ras proteins by L-654,969 by itself” value in test [2] (0.15 μM or 5 μM, by itself) is “does not inhibit farnesylation of the Ras proteins”.

For `C[C@H]([C@H](C/C=C/c1nc2ccccc2o1)c1ccc2c(c1)OCO2)N(Cc1ccc2ccccc2c1)C(=O)C(O)=C(CC(=O)O)C(=O)OC(C)(C)C` [Preparation Example 5, 4-[N-{(1R,2R,4E)-5-(2-benzoxazolyl)-1-methyl-2-(3,4-methylenedioxyphenyl)-4-pentenyl}-N-(2-naphthylmethyl)carbamoyl]-3-tert-butoxycarbonyl-4-hydroxy-3-butenoic acid], the IC50 worked out at 3.1 µM in test [1] (setting [3]) and 0.93 µM in test [1] (setting [4]). Further, the “50% cell proliferation inhibitory activity in the presence of L-654,969” value in test [1] was “increased synergecally and concentration-dependently”. Moreover, the inhibition at 3 µM in test [2] (Mus musculus, NIH3T3, PFT inhibitor 3 μM, L-654,969: None, 24 hours, read-out: Inhibitory rate (%) on farnesylation of the Ras proteins) was 32%. In addition, the “Inhibitory rate (%) on farnesylation of the Ras proteins” value in test [2] (PFT inhibitor 0.3 μM, L-654,969 5 μM, 24 hours) stood at 43%; in test [2] (PFT inhibitor 1 μM, L-654,969 0.15 μM, 24 hours), 18%; in test [2] (setting [5]), 86%; in test [2] (setting [6]), 72%; in test [2] (setting [7]), 95%. The “inhibitory activity on farnesylation of Ras proteins in the presence of L-654,969” value in test [2] was “increased synergically and concentration-dependently”.
